These results are taken from US20040106545A1, “Compounds and methods for modulating cell adhesion” (priority 1996, published 2004).

Molecules are shown by their SMILES. “Also recorded” adds a separate entry of the source.

Data set [1] deals with OVCAR-3. As to the kind of experiment: Disruption of OVCAR-3 ovarian cancer cell adhesion. Format: cell-based, human. Conditions: 1, 0.1, or 0.01 mg/ml, up to 48 hours. The protocol:
The human ovarian cancer cell line OVCAR-3, which expresses E-cadherin, was used in these experiments. Cells were cultured in RPMI supplemented with insulin and containing 20% FCS. Cells were grown in T-250 culture flasks and maintained by periodic subculturing. Cells were harvested from flasks and seeded in individual wells of 96-well culture dishes (surface area of each well was 0.32 cm^2) at a density of 50,000 cells per well in 0.1 ml media containing the cyclic peptides (at concentrations of 1, 0.1, or 0.01 mg/ml). Media control wells were also established. Cultures were evaluated periodically by microscopic examination under both bright field and phase contrast conditions, and were maintained for 48 hours.

Data set [2] has as its system mice. As to the kind of experiment: Acute toxicity study in mice. The data set is classed as in vivo, mouse. The protocol:
Mice were injected intraperitoneally for seven consecutive days with 20 mg/kg of N—Ac-CHAVC-NH2 (SEQ ID NO:10) and sacrificed 24 hr after treatment.
Mice were injected intraperitoneally with 125 mg/kg of N—Ac-CHAVC-NH2 (SEQ ID NO:10) for three consecutive days and sacrificed on the fourth day.
Mice were injected intravenously with either a saline control or 200 mg/kg of N—Ac-CHAVC-NH2 (SEQ ID NO:10). Mice were sacrificed after 24 hours, or allowed a 14-day recovery period.

Data set [3] has as its target T1, L1 (Homo sapiens, UniProt P32004). In words: Neurite outgrowth on L1 expressing 3T3 monolayers (Example 2). The data set is classed as cell-based, mouse. The following applies: 500 μg/mL. Further details: expressed in transfected cells; host or cells: 3T3 fibroblasts (monolayer); mouse post-natal day 3 cerebellar neurons on top.
Data set [4] relates to control 3T3 cells. In words: Neurite outgrowth of rat cerebellar neurons on control 3T3 monolayers (Example 15). Format: cell-based. Conditions: increasing concentrations (FIG. 23). How it is done:
(§1) Cell culture and neurite outgrowth assays. Co-cultures of cerebellar neurons on monolayers of control 3T3 cells and monolayers of transfected 3T3 cells that express physiological levels of chick N-cadherin or human L1 were established as previously described (Williams et al., Neuron 13:583-594, 1994). In brief, 80,000 3T3 cells (control and transfected) were plated into individual chambers of an eight-chamber tissue culture slide coated with polylysine and fibronectin and cultured in DMEM/10% FCS. After 24 hours, when confluent monolayers had formed, the medium was removed and 3000 cerebellar neurons isolated from post-natal day 2-3 rats were plated into each well in SATO media (Doherty et al., Nature 343:464-466, 1990) supplemented with 2% FCS. All of the test peptides were added immediately before the neurons as a 2× stock prepared in SATO/2% FCS. The co-cultures were maintained for 16-18 hours, at which time they were fixed and immunostained for GAP-43 which is present only in the neurons and delineates the neuritic processes. The mean length of the longest neurite per cell was measured for 150-200 neurons sampled in replicate cultures as previously described (Williams et al., Neuron 13:583-594, 1994). […] Dose-response curves were evaluated and the EC50 values determined.

The target in data set [5] is T2, N-CAM (Homo sapiens, UniProt P13591).
T2 construct: expressed in transfected cells; host or cells: 3T3 fibroblasts (monolayer); mouse post-natal day 3 cerebellar neurons on top
T2 sequence (P13591 20-858, species assumed): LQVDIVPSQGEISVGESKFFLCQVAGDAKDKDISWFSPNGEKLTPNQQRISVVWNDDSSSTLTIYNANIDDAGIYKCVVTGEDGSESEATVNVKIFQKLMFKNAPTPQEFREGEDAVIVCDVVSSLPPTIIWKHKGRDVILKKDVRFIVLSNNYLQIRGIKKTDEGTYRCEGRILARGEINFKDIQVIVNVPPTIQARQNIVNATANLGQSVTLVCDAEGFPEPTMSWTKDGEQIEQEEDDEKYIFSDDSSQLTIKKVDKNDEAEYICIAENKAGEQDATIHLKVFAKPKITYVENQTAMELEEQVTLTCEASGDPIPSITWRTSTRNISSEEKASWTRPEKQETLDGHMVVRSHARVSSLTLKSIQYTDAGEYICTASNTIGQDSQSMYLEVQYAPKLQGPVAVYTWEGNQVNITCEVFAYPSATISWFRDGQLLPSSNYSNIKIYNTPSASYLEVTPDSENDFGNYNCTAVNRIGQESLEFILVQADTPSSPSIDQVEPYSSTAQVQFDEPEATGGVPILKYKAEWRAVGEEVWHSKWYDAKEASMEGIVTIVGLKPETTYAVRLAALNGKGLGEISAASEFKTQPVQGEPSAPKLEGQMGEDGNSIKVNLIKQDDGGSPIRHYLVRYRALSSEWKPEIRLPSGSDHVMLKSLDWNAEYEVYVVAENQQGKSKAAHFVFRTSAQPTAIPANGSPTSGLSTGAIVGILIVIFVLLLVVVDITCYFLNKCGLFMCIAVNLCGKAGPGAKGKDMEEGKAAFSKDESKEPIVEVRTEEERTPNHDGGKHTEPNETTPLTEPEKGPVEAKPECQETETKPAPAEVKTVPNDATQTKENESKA
In words: Neurite outgrowth on N-CAM expressing 3T3 monolayers (Example 2). Conditions: 500 μg/mL. The data set is classed as cell-based, mouse.

The target of data set [6] is T1, L1. In words: Neurite outgrowth of rat cerebellar neurons on L1 expressing 3T3 monolayers (Example 15). The data set is classed as cell-based. The following applies: 125 μg/ml; read-out: % Inhibition of L1 Response. Set-up: expressed in transfected cells; rat cerebellar neurons on top. The protocol:
as §1
Other cell adhesion molecules, such as L1, can stimulate neurite outgrowth, and this response shares the same downstream signaling steps as the N-cadherin response. […] As previously reported, L1 stimulated neurite outgrowth from cerebellar neurons.

For data set [7], the system named is Human saphenous vein vascular smooth muscle cells. As to the kind of experiment: Vascular smooth muscle cell apoptosis and death in aggregates (agarose-coated wells). Format: cell-based. The following applies: 0.5 mg/mL. The protocol:
Human saphenous vein vascular smooth muscle cells were explanted from surplus segments of vein from patients undergoing coronary artery bypass surgery. Cells were maintained in Dulbecco's modified essential medium supplemented with […], 2 mmol/L L-glutamine and 10% fetal calf serum and were grown in agarose-coated wells. Under these conditions the cells are unable to attach to the underlying substratum and adhere to one another by cell-cell contacts only, forming aggregates. The percentage of dead cells was assessed by staining with Trypan blue or by fixing the cells and staining with Hoescht (H-33342). Trypan blue stain is absorbed only by non-viable cells when the integrity of the cell membrane is breached (Freshney, R. (1987) Culture of Animal Cells: A Manual of Basic Technique, p. 117, Alan R. Liss, Inc., New York) whereas Hoescht stain enters living cells (Shapiro (1981) Cytometry 2, 143-150).

T1 sequence (P32004 20-1257): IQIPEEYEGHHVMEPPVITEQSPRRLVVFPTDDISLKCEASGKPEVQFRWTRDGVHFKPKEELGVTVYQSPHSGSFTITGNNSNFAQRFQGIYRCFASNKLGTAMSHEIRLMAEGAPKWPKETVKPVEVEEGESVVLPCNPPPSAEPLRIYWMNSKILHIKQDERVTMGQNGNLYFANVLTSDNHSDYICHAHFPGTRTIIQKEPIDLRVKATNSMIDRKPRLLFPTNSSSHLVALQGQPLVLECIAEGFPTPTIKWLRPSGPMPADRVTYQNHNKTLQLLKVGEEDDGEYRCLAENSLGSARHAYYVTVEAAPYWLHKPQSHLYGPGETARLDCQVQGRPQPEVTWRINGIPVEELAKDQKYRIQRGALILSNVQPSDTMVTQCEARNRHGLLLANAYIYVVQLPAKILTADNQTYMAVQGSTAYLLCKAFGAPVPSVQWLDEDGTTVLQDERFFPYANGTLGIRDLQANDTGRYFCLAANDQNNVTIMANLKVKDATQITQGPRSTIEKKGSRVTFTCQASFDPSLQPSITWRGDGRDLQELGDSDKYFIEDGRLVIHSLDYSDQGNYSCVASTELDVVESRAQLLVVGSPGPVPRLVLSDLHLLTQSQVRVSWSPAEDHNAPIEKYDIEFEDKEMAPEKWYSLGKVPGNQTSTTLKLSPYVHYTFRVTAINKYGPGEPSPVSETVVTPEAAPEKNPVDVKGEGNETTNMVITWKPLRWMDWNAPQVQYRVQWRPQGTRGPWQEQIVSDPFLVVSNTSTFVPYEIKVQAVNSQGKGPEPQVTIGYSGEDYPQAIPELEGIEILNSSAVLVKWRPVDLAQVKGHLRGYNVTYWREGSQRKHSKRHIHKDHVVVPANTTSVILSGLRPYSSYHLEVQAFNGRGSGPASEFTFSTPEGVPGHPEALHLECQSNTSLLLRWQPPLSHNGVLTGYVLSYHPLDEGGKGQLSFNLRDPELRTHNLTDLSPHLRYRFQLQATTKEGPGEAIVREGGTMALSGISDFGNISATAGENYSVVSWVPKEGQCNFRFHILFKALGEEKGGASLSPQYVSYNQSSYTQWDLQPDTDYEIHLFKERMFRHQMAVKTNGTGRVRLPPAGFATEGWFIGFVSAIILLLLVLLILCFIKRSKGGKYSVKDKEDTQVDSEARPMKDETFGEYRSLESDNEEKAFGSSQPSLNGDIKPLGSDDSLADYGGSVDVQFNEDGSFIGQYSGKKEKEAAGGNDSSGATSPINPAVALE

With `CC(=O)N[C@H]1CSSC[C@@H](C(N)=O)NC(=O)[C@H](C(C)C)NC(=O)[C@H](C)NC(=O)[C@H](Cc2c[nH]cn2)NC1=O` [N—Ac—CHAVC—NH2, N-Ac-Cys-His-Ala-Val-Cys-NH2], the “disruption of OVCAR-3 adhesion” value in data set [1] is “inactive”. The “gross or histopathological findings” value in data set [2] (intraperitoneally, 125 mg/kg, three consecutive days, sacrificed on the fourth day) is “No gross or histopathological findings related to the treatment were found”; in data set [2] (intraperitoneally, seven consecutive days, 20 mg/kg, sacrificed 24 hr after treatment) it was “No gross or histopathological findings related to the treatment were found”; in data set [2] (intravenously, 200 mg/kg, sacrificed after 24 hours or 14-day recovery), “no gross or histopathological findings related to the treatment were found”. The mortality result in data set [2] (intravenously, 200 mg/kg) is “no animals died during the study”. For the same compound, the “inhibition of neurite outgrowth on 3T3 cells expressing L1” value in data set [3] was “did not inhibit neurite outgrowth”. Moreover, the “effect on neurite extension over control 3T3 cells” value in data set [4] is “had no effect on the basal growth over 3T3 cells; also recorded: no significant effect on neurite extension over control 3T3 cells”. For the same compound, the “inhibition of neurite outgrowth on 3T3 cells expressing N-CAM” value in data set [5] was “did not inhibit neurite outgrowth”. In addition, the inhibition (in general, the share of the control response that was lost under treatment) at 125 µg/mL in data set [6] is 41.6 ± 8.6%. For the same compound, the “aggregation of vascular smooth muscle cells” value in data set [7] is on record as “inhibits aggregation”. In addition, the “increase in apoptosis and cell death in aggregates” value in data set [7] (24 hr, n=4, p<0.05) came out at 2 fold.
